Measured values as given in BindingDB's records for patent US20240043440 (Case Western Reserve University, 2024).

What follows are compounds tested against T1, 15-hydroxyprostaglandin dehydrogenase [NAD(+)] (Homo sapiens, UniProt P15428) (assay: In vitro Assay (1 nM)).
T1 sequence (P15428 whole entry): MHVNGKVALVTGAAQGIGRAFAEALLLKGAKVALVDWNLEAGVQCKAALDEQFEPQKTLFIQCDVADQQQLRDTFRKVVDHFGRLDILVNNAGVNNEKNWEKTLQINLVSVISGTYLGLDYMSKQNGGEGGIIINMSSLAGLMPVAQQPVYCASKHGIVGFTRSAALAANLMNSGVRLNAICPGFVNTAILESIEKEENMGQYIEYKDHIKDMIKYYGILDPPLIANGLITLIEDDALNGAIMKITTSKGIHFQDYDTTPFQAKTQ
Procedure: Each compound for inhibiting enzymatic activity of recombinant 15-PGDH (1 nM) in an in vitro assay.

Row | IC50 | SMILES
1 | 1.4 nM | COCCC[S+]([O-])c1sc2nc(-c3cccnc3)nc(-c3ccccc3)c2c1N (configuration not stated) [US20240043440, Example 78]
2 | 3.6 nM | CCCC[S+]([O-])c1sc2nc(-c3ccccn3)nc(-c3ccccc3)c2c1N (configuration not stated) [US20240043440, Example 76]
3 | 0.98 nM | CCCC[S+]([O-])c1sc2nc(-c3cccnc3)cc(-c3ccncc3)c2c1N (configuration not stated) [US20240043440, Example 71]
4 | 1.7 nM | CCCC[S+]([O-])c1sc2nc(-c3cnc(N(C)C)nc3)cc(-c3ccccc3)c2c1N (configuration not stated) [US20240043440, Example 63]
5 | 1.5 nM | CCCC[S+]([O-])c1sc2nc(-c3ccc(N)nc3)cc(-c3ccccc3)c2c1N (configuration not stated) [US20240043440, Example 62]
6 | 1.8 nM | CCCC[S+]([O-])c1sc2nc(-c3nccs3)nc(-c3nccn3C)c2c1N (configuration not stated) [US20240043440, Example 77]
7 | 1 nM | CCCC[S+]([O-])c1sc2nc(-c3cccnc3)cc(-c3ccccc3F)c2c1N (configuration not stated) [US20240043440, Example 55]
8 | 1.3 nM | COCCC[S@@+]([O-])c1sc2nc(-c3cccnc3)nc(-c3ccc(F)cc3)c2c1N [US20240043440, Example 87A]
9 | 1 nM | COCC[S@@+]([O-])c1sc2nc(-c3cccnc3)nc(-c3ccccc3)c2c1N [US20240043440, Example 79-A]
10 | 1 nM | CCCC[S+]([O-])c1sc2nc(-c3cccnc3)cc(-c3nccs3)c2c1N (configuration not stated) [US20240043440, Example 51]
11 | 1.1 nM | CCCC[S+]([O-])c1sc2nc(-c3cccnc3)cc(-c3cncn3C)c2c1N (configuration not stated) [US20240043440, Example 43]
12 | 41 nM | CCCC[S@+]([O-])c1sc2nc(-c3cccnc3)nc(-c3nccn3C)c2c1N [US20240043440, Example 86B]
13 | 2.2 nM | CCCC[S+]([O-])c1sc2nc(-c3ncccc3F)cc(-c3cnc(C)n3C)c2c1N (configuration not stated) [US20240043440, Example 45]
14 | 0.91 nM | CCCC[S+]([O-])c1sc2nc(-c3cccnc3)cc(-c3ccc(C#N)cc3)c2c1N (configuration not stated) [US20240043440, Example 59]
15 | 1.1 nM | CCCC[S+]([O-])c1sc2nc(-c3ccncn3)cc(-c3ccccc3)c2c1N (configuration not stated) [US20240043440, Example 47]
16 | 0.93 nM | CCCC[S+]([O-])c1sc2nc(-c3cnc(N)nc3)cc(-c3cnc(C)n3C)c2c1N (configuration not stated) [US20240043440, Example 72]
17 | 0.82 nM | CCCC[S+]([O-])c1sc2nc(-c3cccnc3)cc(-c3cccnc3)c2c1N (configuration not stated) [US20240043440, Example 54]
18 | 0.76 nM | CCCC[S+]([O-])c1sc2nc(-c3cccnc3)nc(-c3cscn3)c2c1N (configuration not stated) [US20240043440, Example 81]
19 | 2.5 nM | COCCC[S+]([O-])c1sc2nc(-c3ccc(N)nc3)cc(-c3cccnc3)c2c1N (configuration not stated) [US20240043440, Example 90]

Row | IC50 | SMILES
20 | 1.2 nM | CCCC[S+]([O-])c1sc2nc(-c3cncnc3)cc(-c3cnc(C)n3C)c2c1N (configuration not stated) [US20240043440, Example 39]
21 | 3.6 nM | Cc1ncc(-c2cc(-c3nccs3)nc3sc([S+]([O-])CC(C)C)c(N)c23)n1C (configuration not stated) [US20240043440, Example 35]
22 | 1.4 nM | COCCC[S+]([O-])c1sc2nc(-c3cccnc3)cc(-c3cncn3C)c2c1N (configuration not stated) [US20240043440, Example 50]
23 | 2.4 nM | COCC[S+]([O-])c1sc2nc(-c3ccc(C4COC4)nc3)cc(-c3ccc(F)cc3)c2c1N (configuration not stated) [US20240043440, Example 91]
24 | 1.4 nM | CCCC[S+]([O-])c1sc2nc(-c3cnc(NC)nc3)cc(-c3ccccc3)c2c1N (configuration not stated) [US20240043440, Example 60]
25 | 2.4 nM | CCCC[S+]([O-])c1sc2nc(-c3ccccn3)cc(-c3cnc(C)n3C)c2c1N (configuration not stated) [US20240043440, Example 40]
26 | 1.2 nM | CCCC[S+]([O-])c1sc2nc(-c3cccnc3)cc(-c3ccccn3)c2c1N (configuration not stated) [US20240043440, Example 58]
27 | 1.3 nM | CCCC[S+]([O-])c1sc2nc(-c3cncnc3)nc(-c3ccccc3)c2c1N (configuration not stated) [US20240043440, Example 83]
28 | 2.6 nM | CCCC[S+]([O-])c1sc2nc(-c3cncnc3)cc(-c3cnc(C4CC4)n3C)c2c1N (configuration not stated) [US20240043440, Example 53]
29 | 1.1 nM | CCCC[S+]([O-])c1sc2nc(-c3cccnc3)cc(-c3cccc(C#N)c3)c2c1N (configuration not stated) [US20240043440, Example 57]
30 | 1.4 nM | CCCC[S+]([O-])c1sc2nc(-c3cccnc3)cc(-c3cnc(C)n3C)c2c1N (configuration not stated) [US20240043440, Example 38]
31 | 1 nM | COCCC[S@@+]([O-])c1sc2nc(-c3cccnc3)nc(-c3ccccc3)c2c1N [US20240043440, Example 78-A]
32 | 1.6 nM | Cn1cncc1-c1cc(-c2nccs2)nc2sc([S+]([O-])C3CCCCC3)c(N)c12 (configuration not stated) [US20240043440, Example 33]
33 | 1.6 nM | Cn1cncc1-c1cc(-c2nccs2)nc2sc([S+]([O-])C3CCCC3)c(N)c12 (configuration not stated) [US20240043440, Example 32]
34 | 2.8 nM | CCCC[S+]([O-])c1sc2nc(-c3cnn(C)c3)cnc2c1N (configuration not stated) [US20240043440, Example 75]
35 | 2.2 nM | CCCC[S+]([O-])c1sc2nc(-c3cnccc3C)cc(-c3cnc(C)n3C)c2c1N (configuration not stated) [US20240043440, Example 56]
36 | 1 nM | CCCC[S+]([O-])c1sc2nc(-c3cccnc3)nc(-c3nccs3)c2c1N (configuration not stated) [US20240043440, Example 82]
37 | 1.4 nM | COCCC[S+]([O-])c1sc2nc(-c3cnn(C)c3)cc(-c3ccccc3)c2c1N (configuration not stated) [US20240043440, Example 66]
38 | 1.8 nM | COCCC[S+]([O-])c1sc2nc(-c3nccs3)cc(-c3cncn3C)c2c1N (configuration not stated) [US20240043440, Example 37]

Row | IC50 | SMILES
39 | 1.1 nM | CCCC[S+]([O-])c1sc2nc(-c3cnc(N)nc3)cc(-c3ccc(F)cc3)c2c1N (configuration not stated) [US20240043440, Example 61]
40 | 1.3 nM | CCCC[S+]([O-])c1sc2nc(-c3cccnc3)nc(-c3cn(C)cn3)c2c1N (configuration not stated) [US20240043440, Example 85]
41 | 1.1 nM | CCCC[S+]([O-])c1sc2nc(-c3cccnc3)nc(-c3nccn3C)c2c1N (configuration not stated) [US20240043440, Example 86]
42 | 1.3 nM | COCCC[S+]([O-])c1sc2nc(-c3cccnc3)cc(-c3cn(C)cn3)c2c1N (configuration not stated) [US20240043440, Example 89]
43 | 1.7 nM | CCCC[S+]([O-])c1sc2nc(-c3ncccn3)cc(-c3ccccc3)c2c1N (configuration not stated) [US20240043440, Example 44]
44 | 12 nM | CCCC[S+]([O-])c1sc2nc(-c3ncccn3)nc(-c3ccccc3)c2c1N (configuration not stated) [US20240043440, Example 80]
45 | 1.2 nM | CCCC[S+]([O-])c1sc2nc(-c3cccnc3)nc(-c3cncn3C)c2c1N (configuration not stated) [US20240043440, Example 84]
46 | 1.8 nM | COCC[S+]([O-])c1sc2nc(-c3cccnc3)cc(-c3cncn3C)c2c1N (configuration not stated) [US20240043440, Example 49]
47 | 1.5 nM | COCC[S+]([O-])c1sc2nc(-c3cccnc3)nc(-c3ccccc3)c2c1N (configuration not stated) [US20240043440, Example 79]
48 | 1.2 nM | CCCC[S+]([O-])c1sc2nc(-c3cccnc3)nc(-c3ccccc3)c2c1N (configuration not stated) [US20240043440, Example 74]
49 | 1.5 nM | COCC[S+]([O-])c1sc2nc(-c3nccs3)cc(-c3cncn3C)c2c1N (configuration not stated) [US20240043440, Example 36]
50 | 0.56 nM | CCCC[S@@+]([O-])c1sc2nc(-c3cccnc3)nc(-c3nccn3C)c2c1N [US20240043440, Example 86A]
51 | 1.8 nM | CCOCC[S+]([O-])c1sc2nc(-c3nccs3)cc(-c3cncn3C)c2c1N (configuration not stated) [US20240043440, Example 31]
52 | 1.1 nM | CCCC[S+]([O-])c1sc2nc(-c3cnc(N)nc3)cc(-c3nccs3)c2c1N (configuration not stated) [US20240043440, Example 69]
53 | 0.88 nM | COCCC[S+]([O-])c1sc2nc(-c3cnco3)cc(-c3ccccc3)c2c1N (configuration not stated) [US20240043440, Example 70]
54 | 3.1 nM | CCOCC[S+]([O-])c1sc2nc(-c3nccs3)cc(-c3cnc(C)n3C)c2c1N (configuration not stated) [US20240043440, Example 34]
55 | 1 nM | CCCC[S+]([O-])c1sc2nc(-c3cccnc3)cc(-c3ncsc3C)c2c1N (configuration not stated) [US20240043440, Example 73]
56 | 1.1 nM | COCCC[S+]([O-])c1sc2nc(-c3cnc(N)nc3)cc(-c3ccccc3)c2c1N (configuration not stated) [US20240043440, Example 65]

The compounds below were run against T1, 15-hydroxyprostaglandin dehydrogenase [NAD(+)] (assay: In vitro Assay (5 nM)).
Procedure: Each compound for inhibiting enzymatic activity of recombinant 15-PGDH (5 nM) in an in vitro assay.

Row | IC50 | SMILES
57 | 1.4 nM | CCCC[S+]([O-])c1sc2nc(-c3nccs3)cc(-c3cn(C)cn3)c2c1N (configuration not stated) [US20240043440, Example 28]
58 | 24.7 nM | CCCC[S+]([O-])c1cc2c(-c3ccccc3)cc(-c3cccs3)nc2s1 (configuration not stated) [US20240043440, Example 11]
59 | 7.1 nM | CCCC[S+]([O-])c1sc2nc(-c3cccs3)cc(-c3ccccc3)c2c1C (configuration not stated) [US20240043440, Example 10]
60 | 221 nM | CCCC[S@+]([O-])c1sc2nc(-c3nccs3)cc(-c3nccn3CC)c2c1N [US20240043440, Example 30]
61 | 4 nM | CCCC[S+]([O-])c1sc2nc(-c3ccc(F)nc3)cc(-c3ccccc3)c2c1N (configuration not stated) [US20240043440, Example 22]
62 | 3.2 nM | CCCC[S+]([O-])c1sc2nc(-c3cncnc3)cc(-c3ccccc3)c2c1N (configuration not stated) [US20240043440, Example 20]
63 | 4 nM | CCCC[S+]([O-])c1sc2nc(-c3cnc(N)nc3)cc(-c3ccccc3)c2c1N (configuration not stated) [US20240043440, Example 21]
64 | 3.7 nM | CCCC[S+]([O-])c1sc2nc(-c3nccs3)nc(-c3cnc(C)n3C)c2c1N (configuration not stated) [US20240043440, Example 15]
65 | 2.6 nM | CCCC[S+]([O-])c1sc2nc(-c3nccs3)cc(-c3ncccn3)c2c1N (configuration not stated) [US20240043440, Example 8]
66 | 20 nM | CCCC[S+]([O-])c1sc2nc(-c3nccs3)nc(-c3cccnc3)c2c1N (configuration not stated) [US20240043440, Example 26]
67 | 2.7 nM | CCCC[S+]([O-])c1sc2nc(-c3nccs3)cc(-c3cnccn3)c2c1N (configuration not stated) [US20240043440, Example 1]
